Results on 135 compounds are retold here after a melting point compilation (Tetko et al.).

Usually melting point stands for the temperature, or range, at which the solid turns liquid.

Structures are written as SMILES.

The conditions of the data set: a range is the spread between reports.

Consider `C=CCCCCCCCCC(=O)O`, for which the melting point is 24 to 24.5 °C.

Consider `c1ccc(-n2cccc2)cc1`, for which the melting point was in the range of 59 to 62 °C.

Regarding `CCCCOCCO`, the melting point is -79 to -74.8 °C.

The compound `Cc1ccc(S(=O)(=O)F)cc1` showed a melting point of 41 to 41.5 °C.

Compound `ClCCCl` displayed a melting point of -36 to -35 °C.

`Nc1ncc2ncn(COCCO)c2n1` registered a melting point of 188 to 189 °C.

`CN(C)c1ccc(C(=O)O)cc1` gave a melting point of 242 to 243 °C.

As for `O=c1c(O)c(-c2ccccc2)oc2cc(O)cc(O)c12`, the melting point is 214 to 215 °C.

In the case of `c1ccc(CSc2ccccc2)cc1`, the melting point was in the range of 41 to 43.5 °C.

The compound `O=C1CSC(=S)N1` had a melting point of 169 to 170 °C.

The compound `OCc1ccccc1I` had a melting point of 91 to 92 °C.

Compound `O=Cc1ccccc1[N+](=O)[O-]` returned a melting point of 43.5 to 46 °C.

Regarding `CCCCCCCCCCCCCC=O`, the melting point was in the range of 20.5 to 24 °C.

`C=CC(C)(C)C` had a melting point of -115 °C.

For the compound `O=C(O)COc1ccccc1C(=O)O`, the melting point lay within 189 to 191 °C.

Take `C=C(C)CC`: the melting point was -138 to -137 °C.

On to `CCCCCCCCCCCCCCCCCC(=O)OC`, for which the melting point is 39.1 to 40 °C.

`CCN(CC)c1ccc2c(C)cc(=O)oc2c1` showed a melting point of 70 to 74 °C.

The compound `O=[N+]([O-])c1cccc([N+](=O)[O-])c1Cl` yielded a melting point of 86 to 88 °C.

`c1cc2c3c(cccc3c1)CC2`: the melting point is 93.4 to 95 °C.

For `Cc1cc(Cl)nc(Cl)c1C#N`, the melting point was 110 to 113 °C.

`CC(=O)c1ccccc1`: the melting point was in the range of 19 to 20.5 °C.

For the compound `Cc1cncc(C)c1`, the melting point was -9 to -6.6 °C.

With `O=Cc1ccccc1F`, the melting point is -45 to -44.5 °C.

For `CC(=O)c1ccc(-c2ccccc2)cc1`, the melting point is 120 to 122 °C.

In turn, `O=C(O)c1cc(F)ccc1F` came in with a melting point of 130 to 133 °C.

The compound `N[C@@H](Cc1c[nH]cn1)C(=O)O` returned a melting point of 282 to 287 °C.

In turn, `CCCCC(C)C` registered a melting point of -118 °C.

Compound `NCC(O)c1ccccc1` (stereo not given) had a melting point of 56.5 to 57 °C.

`Cc1cccc(C)n1` yielded a melting point of -7 to -6 °C.

For `C1CC[C@H]2CCCC[C@H]2C1`, the melting point was -43 to -42.9 °C.

`CCCC(=O)OCCC(C)C` had a melting point of -73.2 to -73 °C.

Turning to `CC12CCC3C(CCC4(C)CC5(CCC34C)OCCO5)C1CCC2=O` (stereo not given), the melting point was in the range of 158 to 159 °C.

For the compound `Clc1cc(Cl)cc(I)c1`, the melting point lay in the range of 56 to 57 °C.

Compound `CCN1C(=O)c2ccccc2C1=O` came in with a melting point of 76 to 79 °C.

The compound `CCOC(=O)C(=Cc1ccccc1)C(=O)OCC` registered a melting point of 30 to 32 °C.

`COc1cccc(C(=O)O)c1` yielded a melting point of 103 to 107 °C.

In the case of `Cc1cc(O)c(C(C)C)cc1C1(c2cc(C(C)C)c(O)cc2C)OC(=O)c2ccccc21`, the melting point was in the range of 250 to 253 °C.

`COc1ccc(-c2cc(=O)c3c(O)c(OC)c(O)cc3o2)cc1` had a melting point of 221 to 225 °C.

As to `COc1ccc(OC)c(N)c1`, the melting point fell in the range of 80 to 82.5 °C.

As for `COC(=O)c1cc(Cl)ccc1O`, the melting point fell in the range of 46 to 50 °C.

In turn, `COc1cc(Cl)c(Cl)c(Cl)c1Cl` gave a melting point of 84 to 88 °C.

`CC1(C)OC(=O)NC1=O` came in with a melting point of 76.5 to 79 °C.

As to `O=Cc1cc(Br)c(O)c(Br)c1`, the melting point was 181 to 182 °C.

With `OC(c1ccccc1)c1ccc(Cl)cc1` (stereo not given), the melting point is 60 to 60.8 °C.

For `SC(c1ccccc1)(c1ccccc1)c1ccccc1`, the melting point fell in the range of 105 to 106 °C.

`Clc1cc(Cl)c(Cl)nc1Cl`: the melting point lay within 90.5 to 91 °C.

Compound `COC(=O)c1cccc([N+](=O)[O-])c1` yielded a melting point of 78 to 80 °C.

Turning to `O=C(O)Cc1ccc(Br)cc1`, the melting point was 116 to 117 °C.

`COc1ccc(C=O)cc1` displayed a melting point of -1 to 1 °C.

On to `OCC(O)c1ccccc1` (stereo not given), for which the melting point was 67 to 68 °C.

With `CC(=O)CC(=O)OC(C)C`, the melting point was -27.3 to -27 °C.

Consider `Cn1c(=O)c2c(ncn2C)n(C)c1=O`, for which the melting point was 235 to 238 °C.

`CC1=CCC(C(C)(C)O)CC1O` (stereo not given) displayed a melting point of 130 to 131 °C.

The compound `Fc1c(F)c(F)c2c(F)c(F)c(F)c(F)c2c1F` registered a melting point of 87 to 87.5 °C.

`CC(C)[N+](=O)[O-]` displayed a melting point of -93 to -91.3 °C.

With `c1ccc(C2CO2)cc1` (stereo not given), the melting point is -37 to -35.6 °C.

Compound `O=Cc1cc([N+](=O)[O-])ccc1O` returned a melting point of 125 to 129 °C.

For `O=C(O)CCCCC1SCC2NC(=O)NC21` (stereo not given), the melting point was in the range of 230 to 232 °C.

In turn, `O=C=Nc1ccc(Cc2ccc(N=C=O)cc2)cc1` returned a melting point of 37.2 to 38 °C.

With `CC(C)(Br)C(=O)O`, the melting point was in the range of 44 to 48.5 °C.

`CC(=O)Nc1ccccc1C` gave a melting point of 110 to 111 °C.

`CC(=O)c1c[nH]c2ccccc12` came in with a melting point of 189 to 194 °C.

For `Oc1ccc2cc(O)ccc2c1`, the melting point lay within 220 to 224 °C.

Take `O=C(O)c1cc(Cl)cc(Cl)c1`: the melting point lay in the range of 186 to 188 °C.

On to `O=C(CO)c1ccccc1`, for which the melting point lay in the range of 4.5 to 6 °C.

The compound `Oc1ccccc1` yielded a melting point of 40.9 to 42 °C.

For the compound `CC12CCC(C1)C(C)(C)C2=O` (stereo not given), the melting point was in the range of 5 to 6.1 °C.

`CC1CCC(=O)CC1`: the melting point was -41 to -40.6 °C.

Compound `O=C1c2ccccc2CCc2ccccc21` came in with a melting point of 30 to 33 °C.

The compound `CC(C)(C)c1cc(C(=O)O)cc(C(C)(C)C)c1O` yielded a melting point of 208 °C.

As for `CC(=O)Nc1cccc(F)c1`, the melting point was 83 to 88 °C.

In turn, `CC(=O)Oc1ccc(C(=O)O)cc1` came in with a melting point of 192 to 194 °C.

Compound `CCC(C)=C(C)C` displayed a melting point of -118 °C.

Regarding `O[Si](c1ccccc1)(c1ccccc1)c1ccccc1`, the melting point was 152 to 155 °C.

As to `COc1cccc([N+](=O)[O-])c1`, the melting point was in the range of 38 to 38.5 °C.

In turn, `C=CCCCCCCCCCCCCCCCCCC` returned a melting point of 28.5 to 29 °C.

The compound `O=C1OC2(c3ccc(O)cc3Oc3cc(O)ccc32)c2ccccc21` displayed a melting point of 315 to 320 °C.

The compound `Oc1ccc2ccccc2c1` returned a melting point of 122 to 123 °C.

With `CC(C)(C)C1=CC(=O)C(=O)C(C(C)(C)C)=C1`, the melting point lay in the range of 114 to 115 °C.

Consider `CCCCCCCCCCCCCO`, for which the melting point fell in the range of 32.5 to 34 °C.

As to `O=C(Cl)N(c1ccccc1)c1ccccc1`, the melting point fell in the range of 83 to 84 °C.

Take `CCCCCCC#N`: the melting point was -64 to -63 °C.

In turn, `CC(C)(C)c1cccc(O)c1` showed a melting point of 41 to 45 °C.

In the case of `Cc1cc(O)c2ccccc2n1`, the melting point fell in the range of 234 to 235 °C.

For `CNc1ccc(Cl)cc1C(=O)c1ccccc1`, the melting point was in the range of 94 to 96 °C.

In turn, `OCc1ccc2c(c1)OCO2` gave a melting point of 53 to 58 °C.

`NNC(=O)c1ccc(N)cc1` registered a melting point of 226 to 228 °C.

The compound `O=C1CCCC1` yielded a melting point of -51.9 to -51 °C.

The compound `Oc1cccc2cccnc12` yielded a melting point of 74 to 76 °C.

The compound `O=C(O)c1cccc(Br)c1` gave a melting point of 155 to 157 °C.

The compound `CC(C)(C)N=C=S` gave a melting point of 10 to 10.5 °C.

On to `COc1cc(O)ccc1O`, for which the melting point fell in the range of 89 to 90 °C.

Regarding `Clc1cccc(Br)c1`, the melting point is -22 to -21.5 °C.

`Nn1cnnc1`: the melting point lay in the range of 82.5 to 86 °C.

`O=C(O)C(F)(F)F` had a melting point of -15.2 to -15 °C.

Regarding `O=[N+]([O-])c1cc(C(F)(F)F)ccc1Cl`, the melting point is -3 to -2.5 °C.

The compound `O=C(O)CC(S)C(=O)O` (stereo not given) registered a melting point of 149 to 152 °C.

The compound `OCc1ccc(Cl)cc1` registered a melting point of 70 to 75 °C.

For `COc1ccc(C(C)=O)c(OC)c1`, the melting point fell in the range of 40 to 41 °C.

On to `O=C1CCc2ccccc21`, for which the melting point is 40 to 42 °C.

As to `c1ccc2c(c1)CCO2`, the melting point was -21.5 to -21 °C.

`c1ccc(-c2c3ccccc3c(-c3ccccc3)c3ccccc23)cc1`: the melting point was in the range of 246 to 251 °C.

On to `COC(=O)C(Cl)(Cl)Cl`, for which the melting point is -18 to -17.5 °C.

In the case of `CCOS(=O)(=O)OCC`, the melting point is -25 to -24 °C.

On to `CCCCOc1ccccc1`, for which the melting point is -19.4 to -19 °C.

The compound `NCc1cccnc1` returned a melting point of -21.1 to -21 °C.

`CC(=O)OCc1ccccc1` had a melting point of -51.3 to -51 °C.

The compound `FC(Cl)(Cl)Cl` returned a melting point of -111 to -110 °C.

In turn, `COCCOC(C)=O` came in with a melting point of -65.1 to -65 °C.

Regarding `Oc1c(Cl)cc(Cl)c(Cl)c1Cc1c(O)c(Cl)cc(Cl)c1Cl`, the melting point was 164 to 166 °C.

Take `CCc1ccncc1`: the melting point is -91 to -90.5 °C.

With `Cc1cccc([N+](=O)[O-])c1N`, the melting point was 95 to 96 °C.

`Clc1cccc(-c2ccccc2)c1` returned a melting point of 16 to 18 °C.

The compound `CC[C@H]1CC[C@H]2[C@@H]3CC[C@@H]4CCCC[C@]4(C)[C@H]3CC[C@]12C` displayed a melting point of 83.5 to 84.5 °C.

In turn, `COC(=O)c1ccccc1C(=O)OC` came in with a melting point of 2 to 5.5 °C.

Take `O=C(O)Cc1c(Cl)ccc(Cl)c1Cl`: the melting point is 156 to 161 °C.

`Cn1c2ccccc2c2ccccc21` returned a melting point of 89.3 to 91 °C.

With `Brc1cccnc1`, the melting point was -27.3 to -27 °C.

Consider `CC(C)(C)CC(C)(C)C`, for which the melting point was -67 to -66.5 °C.

`C=CCC(C)C` returned a melting point of -154 to -153 °C.

`CN(C)c1ccccc1` showed a melting point of 2 to 3 °C.

Compound `Cc1ccc(Cl)cc1Cl` gave a melting point of -13.5 to -13 °C.

Turning to `CCOc1ccc(I)cc1`, the melting point is 28 to 29 °C.

Take `CCCCCCCCOc1ccc(C(=O)c2ccccc2)c(O)c1`: the melting point is 48 to 48.5 °C.

With `O=C(O)c1ccc2c(c1)C(=O)OC2=O`, the melting point lay within 162 to 167 °C.

For the compound `OCC(CO)(CO)COCC(CO)(CO)CO`, the melting point fell in the range of 217 to 221 °C.

`O=C(Cl)c1ccccc1Br` came in with a melting point of 10 to 11 °C.

With `CCCCCCCCCCCCCCCCCCCCC`, the melting point lay in the range of 39 to 41 °C.

`O=C1C(Cl)=CC(=NCl)C=C1Cl` registered a melting point of 66 to 67 °C.

In turn, `O=S(=O)(Cl)c1ccc2ccccc2c1` came in with a melting point of 76 to 81 °C.

The compound `COc1ccc(C=O)cc1OC` showed a melting point of 43 to 44 °C.

With `COc1ccc(C(N)=O)cc1`, the melting point fell in the range of 165 to 166 °C.

For `CCO`, the melting point is -114 °C.

Compound `CCC1CCC1` came in with a melting point of -143 °C.
